In patent US11214586B2, “Rhodamine triplet state complex and preparation and photodynamic therapy (PDT) study thereof” (SOUTHERN UNIVERSITY OF SCIENCE AND TECHNOLOGY, priority 2018, dated 2022):
Read-outs that look alike come from different tables or passages of the source.

Experiments:
[1] = UV/Vis absorption spectra; format: physicochemical; settings: for λabs: absorption maximum, in CH3CN; for ε × 10^4: molar extinction coefficient at the absorption maxima, values × 10^4
Protocol: (§1) The UV-vis absorption spectra were taken on Cary 60 UV-vis spectrophotometer. Steady-state emission spectra at room temperature were recorded on an Edinburgh Instruments FLS980 fluorescence spectrometer. Quartz cuvettes (path length=1 cm) were used in all spectrophotometric and fluorometric measurements. NMR spectra were recorded on a Bruker AVANCE 400 (^1H NMR for 400 MHz and ^13C NMR for 100 MHz) Fourier transform NMR spectrometer with chemical shifts reported relative to tetramethylsilane, (CH3)4Si. High-resolution MS spectra were performed on an Orbitrap Fusion Tribrid mass spectrometer. Elemental analyses of the newly synthesized complexes were preformed on a Elementar Vario EL Cube elemental analyzer at Sun Yat-sen University. The nanosecond time-resolved transient-difference absorption spectra were detected by using Edinburgh LP920 instruments (Edinburgh Instruments, U.K.). All solutions for transient absorption studies were degassed on a high-vacuum line in a two-compartment cell consisting of a 10-ml Pyrex bulb and a 1-cm or 4-mm path length quartz cuvette and sealed from the atmosphere by a Bibby Rotaflo HP6 Teflon stopper. The solutions were rigorously degassed with at least four successive freeze-pump-thaw cycles. Emission lifetime measurements were performed using a conventional laser system. The excitation source used was a 355-nm output (third harmonic) of a Spectra-Physics Quanta-Ray Q-switched GCR-150-10 pulsed Nd-YAG laser. Luminescence decay signals were detected by a Hamamatsu R928 PMT and recorded on a Tektronix Model TDS-620A (500 MHz, 2 GS/s) digital oscilloscope and analyzed using a program for exponential fits. Absolute quantum yields were measured by HAMAMATSU-C11347.

[2] = Nanosecond transient absorption difference spectroscopy; format: physicochemical; settings: for TT (triplet-state lifetimes): measured by transient absorption in CH3CN
Excerpt: Nanosecond transient absorption (TA) difference spectroscopy was employed to investigate the triplet excited states of M-Rho (FIG. 2c and FIGS. 16-19). Upon pulsed laser excitation at 355 nm, an intense bleaching signal at 575 nm with lifetime in microsecond range is observed, which is ascribed to the depletion of ground state rhodamine absorption. Such a long-lived excited state should be localized on the rhodamine unit, and is assigned as the ^3IL excited state of rhodamine in M-Rho. The absorption signal at 610-800 nm is due to the rhodamine ^3IL excited state absorption. In contrast, no signal from this triplet excited state is detected in bpy-Rho because of the lack of efficient ISC. On the other hand, only the transient absorption signals originating from the corresponding ^3MLCT excited states are observed in the rhodamine-free analogues (FIGS. 20-21).
as §1

[3] = Singlet oxygen quantum yield; format: physicochemical; settings: for ΦΔ (singlet oxygen quantum yield): relative to rose bengal (ΦΔ = 0.76)
Excerpt: (§2) The long-lived triplet excited state of rhodamine is anticipated to interact with molecular oxygen (^3O2) to form singlet oxygen (^1O2), which is useful for PDT applications. The ability of M-Rho to produce ^1O2 has been evaluated spectroscopically by the observation of ^1O2 emission at about 1270 nm (inset of FIG. 2b). Remarkable ^1O2 emission is observed in Ir-Rho, Re-Rho and Pt-Rho but not for Rh-Rho and bpy-Rho. By monitoring the diminution of the characteristic absorption of the ^1O2 scavenger 1,3-diphenylisobenzofuran (DPBF) at 410 nm, ^1O2 generation is also confirmed and the corresponding quantum yields (ϕΔ) for the complexes are determined (Table 1). […] The rate and quantum yield of ^1O2 generation are found to vary with different metal systems.
Singlet oxygen quantum yield was determined by comparing the ^1O2 emission intensity of Rose Bengal and M-Rho.

[4] = Singlet oxygen emission at about 1270 nm; format: physicochemical; settings: in CH3CN
Protocol: Singlet oxygen emission was detected by using FLS-980 spectrofluorometer. All of the compounds were dissolved in CH3CN. The absorbance at 532 nm was adjusted to be around 1.7 for all the compounds. Upon measurements, an 850 nm long-pass filter was inserted in between the sample and the detector to avoid many high-order diffraction from the visible emission.

[5] = system: MCF-7 cells; experiment: Mitochondrial membrane potential, flow-cytometry-based JC-1 assay; format: cell-based, human; settings: 5 uM, 11 W lamp 30 min
Protocol: Mitochondrial depolarization was assessed by flow cytometry after incubation with JC-1 Molecular Probes (Thermo Fisher Scientific, USA). Briefly, The MCF-7 cells were seeded in six-well plate, incubated for 24 h in 5% CO2 at 37° C. Next, added to compounds (bpy-Rho and M-Rho) in medium make the final concentrations of 5 uM compounds. After irradiation treatment (11 W lamp 30 min). The cells were resuspended in warm PBS, and incubated with JC-1 (4 μg/ml) for 30 min at 37° C. and 5% CO2. Thereafter the cells were centrifuged, resuspended in 600 μL of PBS, and analyzed immediately on a flow cytometer (Becton Dickinson, San Jose, Calif., USA). Untreated cells were used as negative controls.

[6] = Octanol-water partition coefficient
Excerpt: (§3) Octanol-water partition coefficients (log Po/w)^[27] of bpy-Rho and M-Rho have been measured in order to study their lipophilic/hydrophilic characters. The higher is the log Po/w value associated with the dye, the higher is its lipophilic character.

[7] = Steady-state emission spectra and absolute luminescence quantum yield; format: physicochemical; settings: for λem: Conc. = 1.0 × 10^−6M in MeOH; for Φlum: absolute luminescence quantum yield measured by HAMAMATSU-C11347
Protocol: as §1

[8] = DPBF 1O2 scavenger absorbance under 11-W lamp irradiation; format: physicochemical; settings: irradiation with a 11-W lamp; 50 μM DPBF, 5 μM compound
Protocol: Rose Bengal was measured in MeOH.
as §2

[9] = system: MCF-7 cells; experiment: Intracellular ROS, DCFH-DA assay; format: cell-based, human; settings: 5 μM, 11-W lamp for 30 min
Protocol: The MCF-7 cells were seeded in eight-well chambered coverglasses (lab-Tek, Nunc, USA) and six-well plate, incubated for 24 h in 5% CO2 at 37° C. Next, added to compounds (bpy-Rho and M-Rho) in medium make the final concentrations of 5 μM compounds. After irradiation treatment (11 W lamp 30 min), cells were promptly washed with PBS and incubated with 4 μg/ml 2′7′-dichloro-fluoreseindiacetate (DCFH-DA) for 30 min, and intracellular ROS generation was evaluated by flow cytometry and confocal microscopy.

[10] = system: MCF-7 cells; experiment: Subcellular localization with MitoTracker Green; format: cell-based, human; settings: 5 μM, co-stained with MitoTracker Green
Protocol: MCF-7 cells (5000 cells) were cultured in eight-well chambered coverglasses (lab-Tek, Nunc, USA) for 24 h. Later, added to the cells to give final complexes concentrations (5 μM). After incubation for 30 min, The cells were treated with Mito-Tracker for 10 min to stain specifically the mitochondria (1:5000 dilution in PBS). After washing three times with PBS, followed by confocal microscopy imaging.

[11] = physchem
Excerpt: as §3

[12] = system: MCF-7 cells; experiment: Mitochondria-localized ROS, MitoSOX Red; format: cell-based, human; settings: 10 μM, 11 W lamp irradiation for 10 min
Protocol: (a) Confocal fluorescence microscopic images of MCF-7 cells treated with MitoSOX (1.0 μM) according to the treatment variables, including with coincubation with bpy-Rho and M-Rho (10 μM), 11 W lamp irradiation for 10 min. (b) Flow cytometry analysis of MCF-7 cells (n=10000 cells) after treatment with MitoSox and different Rhodamine-metal Complexes mean fluorescence intensity per cell.
On the basis of the results of intracellular ROS production and colocalization study, it is reasonable to anticipate that the ROS is essentially generated within the mitochondria. MitoSOX Red reagent, a mitochondrial ROS indicator, is also used to probe specifically the generation of mitochondria-localized ROS. Intense red fluorescence from the oxidation of MitoSOX is observed in both confocal fluorescence microscopy images (FIG. 26a) and flow cytometry analysis (FIG. 26b) of MCG-7 cells incubated with MitoSOX and M-Rho.

[13] = octanol-water, literature value; cited from earlier work

| Compound | λabs [1] [nm] | ε × 10^4 [1] [M^−1 cm^−1] | TT (triplet-state lifetimes) [2] [μs] | ΦΔ (singlet oxygen quantum yield) [3] | 1O2 emission at about 1270 nm [4] | ratio of JC-1 aggregates/JC-1 monomers [5] | log Po/w [6] | λem [7] [nm] | Φlum [7] | rate and quantum yield of 1O2 generation, ranking ([3]; among M-Rho) | signal from rhodamine triplet excited state ([2]; excitation at 355 nm) | DPBF absorption at 410 nm [8] | intracellular ROS generation [9] | mitochondrial localization [10] | logP [11] | MitoSOX red fluorescence (mitochondria-localized ROS) [12] | emission ([7]; in MeCN) [nm] | log Po/w [13] |
| --- | --- | --- | --- | --- | --- | --- | --- | --- | --- | --- | --- | --- | --- | --- | --- | --- | --- | --- |
| CCN(CC)c1ccc2c(-c3ccnc(-c4cc(C)ccn4)c3)c3ccc(=[N+](CC)CC)cc-3oc2c1.F[P-](F)(F)(F)(F)F.[C](#Cc1ccccc1)[Pt][C]#Cc1ccccc1 [Pt-Rho] | 574 | 7.96 | 8.49 | 0.57 | Remarkable | 8.16 | 1.26 | 631 | 0.062 |  |  |  |  |  |  |  |  |  |
| CCN(CC)c1ccc2c(-c3ccnc(-c4cc(C)ccn4)c3)c3ccc(=[N+](CC)CC)cc-3oc2c1.F[P-](F)(F)(F)(F)F.F[P-](F)(F)(F)(F)F.c1ccc(-c2cccc[c]2[Rh+][c]2ccccc2-c2ccccn2)nc1 [Rh-Rho] | 574 | 8.24 | 14.1 | 0.37 | not | 11.28 | −1.05 | 629 | 0.23 | worst photosensitizer |  |  |  |  |  |  |  |  |
| CCN(CC)c1ccc2c(-c3ccnc(-c4cc(C)ccn4)c3)c3ccc(=[N+](CC)CC)cc-3oc2c1 [bpy-Rho, N-(6-(diethylamino)-9-(4′-methyl-[2,2′-bipyridin]-4-yl)-3H-xanthen-3-ylidene)-N-ethylethanaminium] | 564 | 9.86 |  | 0.08 | not | 14.23 |  | 598 | 0.29 |  | no signal | negligible decrease | negligible or a little amount of ROS | relatively less mitochondria-localized | 0.49 | very weak red fluorescence | 598 |  |
| COC(=O)c1ccccc1-c1c2ccc(=N)cc-2oc2cc(N)ccc12.Cl [rhodamine 123] |  |  |  |  |  |  |  |  |  |  |  |  |  |  |  |  |  | −0.62 |
